The numbers were not newly measured in US7985754B2, “Selective antagonists of A2A adenosine receptors” (Trovis Pharmaceuticals, LLC, priority 2006, dated 2011), which cites them from elsewhere.

SMILES strings stand for the structures.

The conditions of series [1]: in words.
The conditions of series [2]: in words. This is another data set of the same source.

On to `Nc1nc2c(cnn2CCc2ccccc2)c2nc(-c3ccco3)nn12` [SCH58261], for which the solubility result in series [1] was “very poorly soluble”. For `Nc1nc(NCCc2ccc(O)cc2)nc2nc(-c3ccco3)nn12` [ZM241385], the bioavailability entry in series [2] is “poor bioavailability”.
